Experimental data taken from paper PMC11859181, “Alternaria alternata (Fr) Keissl Crude Extract Inhibits HIV Subtypes and Integrase Drug-Resistant Strains at Different Stages of HIV Replication” (Pharmaceuticals, 2025).
Values after ≈ are worked out from the molar mass of the structure shown. Where two headings read alike, the source gives them in different places.

Legend:
[1] = tested on: pNL4.3 (subtype B) HIV-1 virus; experiment: Luciferase-based antiviral assay, pNL4.3 (wild type); assay type: cell-based
[2] = tested on: integrase drug-resistant strain T66K; experiment: microbe, parasite or virus in culture; assay type: cell-based, HIV-1; conditions: for IC50: Human immunodeficiency virus 1, TZM-bl, read-out: IC50 (T66K); for inhibition at 300 µg/mL: Human immunodeficiency virus 1, read-out: inhibition of HIV replication; for fold change (FC) T66K: drug-resistant strain IC50/wild-type IC50
[3] = tested on: integrase drug-resistant strain S230R; experiment: microbe, parasite or virus in culture; assay type: cell-based, HIV-1; conditions: for IC50: Human immunodeficiency virus 1, TZM-bl, read-out: IC50 (S230R); for inhibition at 300 µg/mL: Human immunodeficiency virus 1, read-out: inhibition of HIV replication; for fold change (FC) S230R: drug-resistant strain IC50/wild-type IC50
[4] = tested on: integrase drug-resistant strain T66K; design: method as in PMID 18625269; conditions: previously reported; cited from earlier work
[5] = tested on: integrase drug-resistant strain S230R; conditions: previously reported; cited from earlier work
[6] = MTT cell viability and cytotoxicity assay; assay type: cell-based; conditions: human, TZM-bl cells
Experimental: A. alternata crude extract cell cytotoxicity and viability were assessed by MTT (3-[4, 5-dimethylthiazol-2-yl]-2, 5-diphenyltetrazolium bromide) cell viability assay using the CYQUANT MTT cell proliferation kit (Thermo Fisher Scientific, Waltham, MA, USA). A 96-well culture plate was seeded with 15,000 TZM-bl cells/200 µL of DMEM per well and incubated at 37 °C with 5% CO2.). Following this, 10 µL of the drug control azidothymidine (NIH AIDS Research and Reference Reagent Programme) and the A. alternata crude extract were diluted five-fold, and control wells where neither the control drug AZT nor the crude extract was added were followed by incubation at 37 °C with 5% CO2 and 95% humidity for 48 h. Ten microlitres of 12 mM of MTT solution was added to each well and incubated for 4 h at 37 °C with 5% CO2 and 95% humidity. Then, 50 µL of 100% DMSO were added to each well and incubated for 10 min. The absorbance was then measured at a wavelength of 540 nm using the Victor Nivo microplate reader (PerkinElmer, Waltham, MA, USA). The percentage of cell viability was calculated using the formula below:%Cell viability = (Sample absorbance − media control)/(Mean media control absorbance) × 100
The drug control azidothymidine and A. alternata crude extract CC50 (50% cytotoxic concentration) were determined using GraphPad Prism software (v.5) by dose-response curve.

[7] = tested on: PC 148 (subtype A) HIV-1 virus; experiment: microbe, parasite or virus in culture; assay type: cell-based; conditions: Human immunodeficiency virus 1, TZM-bl
[8] = tested on: MC 2297 (subtype A) HIV-1 virus; experiment: microbe, parasite or virus in culture; assay type: cell-based; conditions: Human immunodeficiency virus 1, TZM-bl
[9] = tested on: YU2 (subtype B) HIV-1 virus; experiment: microbe, parasite or virus in culture; assay type: cell-based; conditions: Human immunodeficiency virus 1, TZM-bl
[10] = tested on: CM7 (subtype C) HIV-1 virus; experiment: microbe, parasite or virus in culture; assay type: cell-based; conditions: Human immunodeficiency virus 1, TZM-bl
[11] = tested on: CM9 (subtype C) HIV-1 virus; experiment: microbe, parasite or virus in culture; assay type: cell-based; conditions: Human immunodeficiency virus 1, TZM-bl
[12] = tested on: PC 60 (subtype D) HIV-1 virus; experiment: microbe, parasite or virus in culture; assay type: cell-based; conditions: Human immunodeficiency virus 1, TZM-bl
[13] = tested on: PC 178 (subtype D) HIV-1 virus; experiment: microbe, parasite or virus in culture; assay type: cell-based; conditions: Human immunodeficiency virus 1, TZM-bl
[14] = Human immunodeficiency virus 1, read-out: IC50 (WT)

C[C@@H]1CCO[C@H]2Cn3cc(C(=O)NCc4ccc(F)cc4F)c(=O)c(O)c3C(=O)N12 [Dolutegravir, dolutegravir]
IC50 [1, 14]: 0.175 ± 0.019 µg/mL (≈ 0.418 µM)
IC50 [2]: 0.327 ± 0.031 µg/mL (≈ 0.78 µM)
inhibition at 300 µg/mL [2]: 100%
fold change (FC) T66K [2]: 1.864
IC50 [3]: 0.383 ± 0.04 µg/mL (≈ 0.914 µM)
inhibition at 300 µg/mL [3]: 100%
fold change (FC) S230R [3]: 2.166
FC conferred by T66K mutation [4]: 2
FC in susceptibility conferred by S230R mutation [5]: 3.85

Cc1nnc(C(=O)NC(C)(C)c2nc(C(=O)NCc3ccc(F)cc3)c(O)c(=O)n2C)o1 [Raltegravir, raltegravir]
IC50 [1, 14]: 0.0364 ± 0.001 µg/mL (≈ 0.082 µM)
IC50 [2]: 0.479 ± 0.078 µg/mL (≈ 1.08 µM)
inhibition at 300 µg/mL [2]: 100%
fold change (FC) T66K [2]: 13.15
IC50 [3]: 0.0475 ± 0.0016 µg/mL (≈ 0.107 µM)
inhibition at 300 µg/mL [3]: 100%
fold change (FC) S230R [3]: 1.305
FC conferred by T66K mutation [4]: 9.6
FC in susceptibility conferred by S230R mutation [5]: 1.52

Cc1cn([C@H]2C[C@H](N=[N+]=[N-])[C@@H](CO)O2)c(=O)[nH]c1=O [Azidothymidine, azidothymidine]
viability at 48 h [6]: > 80%
CC50 at 48 h ([6]; 48 h, triplicate): 385 ± 6.29 µg/mL (≈ 1440 µM)
IC50 [7]: 0.0403 ± 0.002 µg/mL (≈ 0.151 µM)
IC50 [8]: 0.0138 ± 0.001 µg/mL (≈ 0.0518 µM)
IC50 ([1]; Human immunodeficiency virus 1, TZM-bl): 0.0338 ± 0.004 µg/mL (≈ 0.126 µM)
IC50 [9]: 0.0423 ± 0.004 µg/mL (≈ 0.158 µM)
IC50 [10]: 0.058 ± 0.009 µg/mL (≈ 0.217 µM)
IC50 [11]: 0.0924 ± 0.007 µg/mL (≈ 0.346 µM)
IC50 [12]: 0.078 ± 0.005 µg/mL (≈ 0.292 µM)
IC50 [13]: 0.0813 ± 0.003 µg/mL (≈ 0.304 µM)
